Measurements reported in ChEMBL document CHEMBL1133714, “1-(2-Nitrophenyl)thiosemicarbazides: a novel class of potent, orally active non-peptide antagonist for the bradykinin B(2) receptor” (J Med Chem, 2000).

Target: T1, B2 bradykinin receptor (Rattus norvegicus, UniProt P25023)
T1 sequence (P25023 whole entry): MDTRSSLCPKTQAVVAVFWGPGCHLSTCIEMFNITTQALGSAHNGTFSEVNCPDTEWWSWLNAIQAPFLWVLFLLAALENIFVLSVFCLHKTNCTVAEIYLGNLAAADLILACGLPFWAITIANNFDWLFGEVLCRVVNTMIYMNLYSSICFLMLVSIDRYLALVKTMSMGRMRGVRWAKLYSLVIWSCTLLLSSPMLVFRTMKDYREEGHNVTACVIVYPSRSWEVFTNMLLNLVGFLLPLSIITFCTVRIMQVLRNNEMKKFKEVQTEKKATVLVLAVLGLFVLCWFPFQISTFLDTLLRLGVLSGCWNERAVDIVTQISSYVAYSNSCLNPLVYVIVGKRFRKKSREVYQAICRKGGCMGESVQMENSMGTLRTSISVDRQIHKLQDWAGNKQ
Experiment: Inhibition of binding of [3H]BK to rat bradykinin B2 receptor expressed in NG108-15 neuroblastoma-glioma hybrid cell membranes
Set-up: species or system Membrane

Ki [µM]	Compound
> 100	O=C(O)c1ccccc1NNC(=S)NCc1ccccc1
> 100	O=[N+]([O-])c1cccc(N/N=C(\S)NCc2ccccc2)c1
0.004	NS(=O)(=O)c1ccc(N/N=C(/S)NC(c2ccccc2)c2ccccc2)c([N+](=O)[O-])c1
7.1	O=[N+]([O-])c1ccccc1CNC(=S)NCc1ccccc1
0.0005	CN(C)CCN(C)CCNC(=O)[C@@H]1CCCN1S(=O)(=O)c1ccc(NNC(=S)NC(c2ccccc2)c2ccccc2)c([N+](=O)[O-])c1
> 100	O=C(NCc1ccccc1)NCc1ccccc1[N+](=O)[O-]
0.31	O=[N+]([O-])c1cc(S(=O)(=O)NCc2ccccc2)ccc1NNC(=S)NCc1ccccc1
1.6	O=[N+]([O-])c1ccccc1N/N=C(/S)NCc1ccccc1
0.0018	NC(=O)c1ccc(N/N=C(/S)NC(c2ccccc2)c2ccccc2)c([N+](=O)[O-])c1
100	S=C(NCc1ccccc1)NNc1ccccc1
0.148	CN(C)CCCN(CCCN(C)C)S(=O)(=O)c1ccc(NNC(=S)NC(c2ccccc2)c2ccccc2)c([N+](=O)[O-])c1
0.0006	CN(C)CCN(C)CCNC(=O)[C@H]1CCCN1S(=O)(=O)c1ccc(NNC(=S)NC(c2ccccc2)c2ccccc2)c([N+](=O)[O-])c1
0.54	O=[N+]([O-])c1cc(S(=O)(=O)NCc2ccco2)ccc1NNC(=S)NCc1ccco1
> 100	O=[N+]([O-])c1cc(S(=O)(=O)NCc2ccccc2)ccc1N/N=C(\S)CCc1ccccc1
> 100	O=[N+]([O-])c1cc(S(=O)(=O)NCc2ccccc2)ccc1NC/C(S)=N\Cc1ccccc1
0.038	O=[N+]([O-])c1ccccc1N/N=C(/S)NC(c1ccccc1)c1ccccc1
